# Experimental data as given in patent US7994156B2 (priority 2007, dated 2011).
# Assays:
# [1] = molecular target: T1, dopamine (DA) reuptake in synaptosomes (Rattus norvegicus, UniProt P23977); test: Inhibition of DA reuptake in synaptosomes; format: biochemical; details: 3H-DA, read-out: DA-uptake IC50
# T1 construct: in synaptosomes as described in WO 97/16451; from tissue
# Procedure: (§1) A compound of the invention was tested for its ability to inhibit the reuptake of the monoamine neurotransmitters dopamine (DA) noradrenaline (NA) and serotonine (5-HT) in synaptosomes as described in WO 97/16451.
# (§2) The test values are given as IC50 (the concentration (μM) of the test substance which inhibits the specific binding of ^3H-DA, ^3H-NA, or ^3H-5-HT by 50%).
# [2] = molecular target: T2, α7-subtype of nicotinic receptors (Rattus norvegicus, UniProt Q05941); test: biochemical; format: binding
# T2 construct: Cerebral cortices from male Wistar rats (150-250 g) are homogenised; from tissue; host or cells: cerebral cortex of male Wistar rats, washed membrane pellet
# [3] = molecular target: T3, serotonine (5-HT) reuptake in synaptosomes (Rattus norvegicus, UniProt P31652); test: Inhibition of 5-HT reuptake in synaptosomes; format: biochemical; details: 3H-5-HT, read-out: 5-HT-uptake IC50
# T3 construct: serotonine (5-HT) in synaptosomes as described in WO 97/16451; from tissue
# Procedure: as §1, §2
# T2 sequence (Q05941 23-502): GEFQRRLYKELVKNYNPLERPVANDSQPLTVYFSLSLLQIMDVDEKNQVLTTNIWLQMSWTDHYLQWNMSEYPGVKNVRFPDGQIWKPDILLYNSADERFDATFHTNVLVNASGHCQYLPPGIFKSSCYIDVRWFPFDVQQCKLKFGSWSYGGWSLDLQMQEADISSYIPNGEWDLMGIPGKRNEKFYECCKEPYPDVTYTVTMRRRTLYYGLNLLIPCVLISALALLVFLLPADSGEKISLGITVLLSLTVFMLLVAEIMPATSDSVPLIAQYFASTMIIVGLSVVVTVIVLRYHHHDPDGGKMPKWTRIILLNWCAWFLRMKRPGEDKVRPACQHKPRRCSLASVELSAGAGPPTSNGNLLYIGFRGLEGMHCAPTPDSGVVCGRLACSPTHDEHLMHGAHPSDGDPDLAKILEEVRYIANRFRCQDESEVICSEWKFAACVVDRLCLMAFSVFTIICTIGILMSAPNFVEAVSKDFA
# T1 sequence (P23977 whole entry): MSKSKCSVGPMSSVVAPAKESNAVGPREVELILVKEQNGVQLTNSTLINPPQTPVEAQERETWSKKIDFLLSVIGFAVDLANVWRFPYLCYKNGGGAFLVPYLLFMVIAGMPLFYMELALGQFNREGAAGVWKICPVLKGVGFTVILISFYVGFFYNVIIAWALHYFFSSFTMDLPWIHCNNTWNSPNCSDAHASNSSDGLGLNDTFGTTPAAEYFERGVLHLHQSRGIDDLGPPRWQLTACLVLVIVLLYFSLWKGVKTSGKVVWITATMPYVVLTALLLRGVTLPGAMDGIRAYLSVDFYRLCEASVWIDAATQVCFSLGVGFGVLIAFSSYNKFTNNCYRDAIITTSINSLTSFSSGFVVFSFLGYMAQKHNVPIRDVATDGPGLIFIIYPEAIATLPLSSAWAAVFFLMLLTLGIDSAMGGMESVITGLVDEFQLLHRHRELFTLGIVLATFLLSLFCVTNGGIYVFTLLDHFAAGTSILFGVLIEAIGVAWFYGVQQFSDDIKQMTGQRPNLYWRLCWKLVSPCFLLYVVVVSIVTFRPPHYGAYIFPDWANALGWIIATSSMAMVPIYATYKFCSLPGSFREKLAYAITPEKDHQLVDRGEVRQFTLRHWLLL
# T3 sequence (P31652 whole entry): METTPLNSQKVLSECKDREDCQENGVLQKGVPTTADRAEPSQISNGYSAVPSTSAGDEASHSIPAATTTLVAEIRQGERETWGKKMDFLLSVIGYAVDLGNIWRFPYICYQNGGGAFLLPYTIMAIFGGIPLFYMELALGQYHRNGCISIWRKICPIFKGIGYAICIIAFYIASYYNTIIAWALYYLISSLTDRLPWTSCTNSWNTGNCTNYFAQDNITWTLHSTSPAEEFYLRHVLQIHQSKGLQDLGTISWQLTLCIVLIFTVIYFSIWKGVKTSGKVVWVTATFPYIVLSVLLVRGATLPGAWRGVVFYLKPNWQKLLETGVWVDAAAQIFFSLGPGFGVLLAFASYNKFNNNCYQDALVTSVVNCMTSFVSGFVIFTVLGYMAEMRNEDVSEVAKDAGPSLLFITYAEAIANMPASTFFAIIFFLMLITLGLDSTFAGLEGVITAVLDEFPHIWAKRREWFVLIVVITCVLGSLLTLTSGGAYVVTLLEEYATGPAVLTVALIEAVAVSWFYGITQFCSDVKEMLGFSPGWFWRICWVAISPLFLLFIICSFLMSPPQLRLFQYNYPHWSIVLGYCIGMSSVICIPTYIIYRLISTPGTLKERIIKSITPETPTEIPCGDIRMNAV
structure (smiles),measurement,setting,value
"O=C(Oc1ccc(N=Nc2ccccc2)cc1)N1CCN2CCC1CC2 [1,4-Diaza-bicyclo[3.2.2]nonane-4-carboxylic acid 4-phenylazo-phenyl ester]",IC50,[1],32 nM
same,IC50,[2],1600 nM
same,IC50,[3],13000 nM
